Like-named read-outs stand apart in the source and are kept apart here.
Assay: 1st phase clinical test: pharmacokinetics of petasin in serum after single oral administration of tablets containing butterbur extract (open crossover; enzyme immunoassay)
Assay type: in vivo, human (clinically healthy men)
Settings: for AUCRest / Cmax / MRT / Tmax / half-life / AUC / AUC(0-t): single oral, mean ± SD; for Petasin serum concentration Mean / concentration at 0 h: 0 h p.a.; for concentration at 0 h / concentration at 0.25 h / concentration at 0.5 h / concentration at 0.75 h / concentration at 1 h / concentration at 1.17 h / concentration at 1.5 h / concentration at 1.833 h / concentration at 2.167 h / concentration at 2.5 h / concentration at 3 h / concentration at 4 h / concentration at 5 h / concentration at 6 h / concentration at 8 h / concentration at 12 h / concentration at 24 h / Cmax / MRT / Tmax / half-life / AUC / AUC(0-t): male, human, serum; for concentration at 0 h / concentration at 0.25 h / concentration at 0.5 h / concentration at 0.75 h / concentration at 1 h / concentration at 1.17 h / concentration at 1.5 h / concentration at 1.833 h / concentration at 2.167 h / concentration at 2.5 h / concentration at 3 h / concentration at 4 h / concentration at 5 h / concentration at 6 h / concentration at 8 h / concentration at 12 h / concentration at 24 h: oral; for concentration at 0.25 h: 0.25 h p.a.; for concentration at 0.5 h: 0.5 h p.a.; for concentration at 0.75 h: 0.75 h p.a.; for concentration at 1 h: 1 h p.a.; for concentration at 1.5 h: 1.5 h p.a.; for concentration at 1.833 h: 1.833 h p.a.; for concentration at 2.167 h: 2.167 h p.a.; for concentration at 2.5 h: 2.5 h p.a.; for concentration at 4 h: 4 h p.a.; for concentration at 5 h: 5 h p.a.; for concentration at 6 h: 6 h p.a.; for concentration at 8 h: 8 h p.a.; for concentration at 12 h: 12 h p.a.; for concentration at 24 h: 24 h p.a.; for AUC: read-out: AUC0-i; for AUC(0-t): read-out: AUC0-t(last)
Procedure: Petasin ovalbumin is adsorptively bound to polystyrene microtitration plates in a concentration of […] in 0.1 M carbonate buffer, pH=9.5, (100 μl/well) for 16 hours at 4° C. and thereupon sucked off. After washing it two times with 300 μl/well washing buffer (PBS, 0.1% Tween 20) it is blocked for 2 hours at room temperature with 150 μl/well blocking solution (0.6% gelatine, 0.02% […] in PBS) and subsequently washed three times with washing buffer.
50 μl of the serum sample to be tested or the respective standard (1:4 dilution in a sample buffer (PBS, 1% BSA, 0.1% Tween 20, 0.01% thiomersal) and 50 μL of an optimized anti-serum dilution in a sample buffer are simultaneously incubated with shaking for 1 hour at room temperature. Subsequently, the microtitration plate is washed three times with 300 μl/well of washing buffer and incubated for 30 min. at room temperature with 100 μl of anti-rabbit immunoglobulin peroxidase conjugate, diluted in sample buffer, and once more washed as above. Thereupon, it is incubated for 10 min. with 100 μl of a substrate solution ready for use (3.3′, 5.5′-tetramethyl benzidine) per well and the reaction is stopped by adding 100 μl/well of 0.5 M sulfuric acid. The evaluation is carried out at 450 nm in a microtitration plate reader.
In a 1st phase of the clinical test for determining the pharmacokinetic parameters of tablets containing butterbur extract was a single oral administrations of 2 or 4 tablets to 24 clinically healthy men at the age between 18 and 40 years.
The open, crossover test was chosen as method, single administration of each dose in a randomized order with an interval of at least 7 days between the administrations.
Model-independent pharmacokinetic parameters for petasin Statistical methods:
ANOVA, ANOVAlog, Wilcoxon-Mann-Whitney test, Wilcoxon-sign order test

[1] = 2 tablets, after administering 2 tablets, read-out: Petasin serum concentration Max.
[2] = 2 tablets, after administering 2 tablets, read-out: Petasin serum concentration Mean
[3] = 2 tablets, after administering 2 tablets, read-out: Petasin serum concentration Min.
[4] = 2 tablets, after administering 2 tablets, read-out: Petasin serum concentration Median
[5] = 4 tablets, after administering 4 tablets, read-out: Petasin serum concentration Max.
[6] = 4 tablets, after administering 4 tablets, read-out: Petasin serum concentration Median
[7] = 4 tablets, after administering 4 tablets, read-out: Petasin serum concentration Min.
[8] = 4 tablets, after administering 4 tablets, read-out: Petasin serum concentration Mean

## C=C(C)C1CC2(C)C(=CC1=O)CCC(OC(=O)/C(C)=C\C)C2C (centres unmarked) [petasin]
2 tablets
  AUCRest: 18.3 ± 7.9%
  Cmax: 25.5 ± 14.8 ng/mL
  MRT: 7.32 ± 3.74 h
  Tmax: 1.62 ± 0.499 h
  half-life: 7.16 ± 4.61 h
  AUC: 79.7 ± 42.3 ng·h/mL
  AUC(0-t): 65.3 ± 35.6 ng·h/mL
2 versus 4 tablets
  Dose dependence of Cmax and AUC: nearly proportional to the dose
4 tablets versus 2 tablets
  Medium maximum petasin concentration (Cmax) after double the dose: nearly doubled
  Medium time of reaching the maximum serum level (tmax) after double the dose: remains constant
4 tablets
  AUCRest: 10.8 ± 4.9%
  Cmax: 58.1 ± 26.7 ng/mL
  MRT: 6.74 ± 2.47 h
  Tmax: 1.61 ± 0.926 h
  half-life: 7.62 ± 3.34 h
  AUC: 168 ± 73.4 ng·h/mL
  AUC(0-t): 151 ± 68.2 ng·h/mL
After administering 4 tablets
  Petasin serum concentration Mean: <1 ng/mL
After administering 4 tablets, listed as Petasin
  Petasin serum concentration Mean: 0.0 ng/mL
After administering 4 tablets, 3 h p.a.
  Petasin serum concentration Max.: 49.0 ng/mL
[1]
  concentration at 0 h: 0 ng/mL
  concentration at 0.25 h: 5.5 ng/mL
  concentration at 0.5 h: 23.3 ng/mL
  concentration at 0.75 h: 23.8 ng/mL
  concentration at 1 h: 29.3 ng/mL
  concentration at 1.5 h: 47.3 ng/mL
  concentration at 1.833 h: 44.3 ng/mL
  concentration at 2.167 h: 31.7 ng/mL
  concentration at 2.5 h: 26.6 ng/mL
  concentration at 4 h: 11.2 ng/mL
  concentration at 5 h: 8.8 ng/mL
  concentration at 6 h: 8.1 ng/mL
  concentration at 8 h: 4.2 ng/mL
  concentration at 12 h: 2.9 ng/mL
  concentration at 24 h: 2.3 ng/mL
[2]
  concentration at 0 h: 0 ng/mL
  concentration at 0.25 h: 2.8 ng/mL
  concentration at 0.5 h: 7.6 ng/mL
  concentration at 0.75 h: 11.9 ng/mL
  concentration at 1 h: 15.6 ng/mL
  concentration at 1.5 h: 19.3 ng/mL
  concentration at 1.833 h: 18.2 ng/mL
  concentration at 2.167 h: 16.3 ng/mL
  concentration at 2.5 h: 13.6 ng/mL
  concentration at 4 h: 4.5 ng/mL
  concentration at 5 h: 4.1 ng/mL
  concentration at 6 h: 3.2 ng/mL
  concentration at 8 h: 1.9 ng/mL
  concentration at 12 h: 1.6 ng/mL
  concentration at 24 h: 1.5 ng/mL
[3]
  concentration at 0 h: 0 ng/mL
  concentration at 0.25 h: 1.1 ng/mL
  concentration at 0.5 h: 1.5 ng/mL
  concentration at 0.75 h: 4 ng/mL
  concentration at 1 h: 4 ng/mL
  concentration at 1.5 h: 5.1 ng/mL
  concentration at 1.833 h: 7.8 ng/mL
  concentration at 2.167 h: 7.3 ng/mL
  concentration at 2.5 h: 5.9 ng/mL
  concentration at 4 h: 1.7 ng/mL
  concentration at 5 h: 1.5 ng/mL
  concentration at 6 h: 1.2 ng/mL
  concentration at 8 h: 1 ng/mL
  concentration at 12 h: 1.1 ng/mL
  concentration at 24 h: 1.1 ng/mL
[4]
  concentration at 0.25 h: 2.2 ng/mL
  concentration at 0.5 h: 5.9 ng/mL
  concentration at 0.75 h: 11 ng/mL
  concentration at 1 h: 14.7 ng/mL
  concentration at 1.5 h: 16.1 ng/mL
  concentration at 1.833 h: 14.7 ng/mL
  concentration at 2.167 h: 14.5 ng/mL
  concentration at 2.5 h: 10.2 ng/mL
  concentration at 4 h: 5.2 ng/mL
  concentration at 5 h: 3.4 ng/mL
  concentration at 6 h: 3.1 ng/mL
  concentration at 8 h: 1.6 ng/mL
  concentration at 12 h: 1.4 ng/mL
  concentration at 24 h: 1.3 ng/mL
2 tablets, after administering 2 tablets, 1.17 h p.a., read-out: Petasin serum concentration Max.
  concentration at 1.17 h: 62.9 ng/mL
2 tablets, after administering 2 tablets, 1.17 h p.a., read-out: Petasin serum concentration Mean
  concentration at 1.17 h: 21 ng/mL
2 tablets, after administering 2 tablets, 1.17 h p.a., read-out: Petasin serum concentration Median
  concentration at 1.17 h: 15.3 ng/mL
2 tablets, after administering 2 tablets, 1.17 h p.a., read-out: Petasin serum concentration Min.
  concentration at 1.17 h: 5.6 ng/mL
2 tablets, after administering 2 tablets, 3 h p.a., read-out: Petasin serum concentration Max.
  concentration at 3 h: 18.3 ng/mL
2 tablets, after administering 2 tablets, 3 h p.a., read-out: Petasin serum concentration Mean
  concentration at 3 h: 8.8 ng/mL
2 tablets, after administering 2 tablets, 3 h p.a., read-out: Petasin serum concentration Median
  concentration at 3 h: 7.7 ng/mL
2 tablets, after administering 2 tablets, 3 h p.a., read-out: Petasin serum concentration Min.
  concentration at 3 h: 3.1 ng/mL
[5]
  concentration at 0 h: 0 ng/mL
  concentration at 0.25 h: 14.9 ng/mL
  concentration at 0.5 h: 96.2 ng/mL
  concentration at 0.75 h: 91.8 ng/mL
  concentration at 1 h: 100 ng/mL
  concentration at 1.5 h: 90.7 ng/mL
  concentration at 1.833 h: 100 ng/mL
  concentration at 2.167 h: 76.1 ng/mL
  concentration at 2.5 h: 40.9 ng/mL
  concentration at 4 h: 20.8 ng/mL
  concentration at 5 h: 81.4 ng/mL
  concentration at 6 h: 14.7 ng/mL
  concentration at 8 h: 15.7 ng/mL
  concentration at 12 h: 5.1 ng/mL
  concentration at 24 h: 2.3 ng/mL
[6]
  concentration at 0 h: < 1 ng/mL
  concentration at 0.25 h: 3.2 ng/mL
  concentration at 0.5 h: 13.7 ng/mL
  concentration at 0.75 h: 23 ng/mL
  concentration at 1 h: 38.1 ng/mL
  concentration at 1.5 h: 32.4 ng/mL
  concentration at 1.833 h: 26.8 ng/mL
  concentration at 2.167 h: 27.5 ng/mL
  concentration at 2.5 h: 26.1 ng/mL
  concentration at 4 h: 8.1 ng/mL
  concentration at 5 h: 7.3 ng/mL
  concentration at 6 h: 5 ng/mL
  concentration at 8 h: 3.1 ng/mL
  concentration at 12 h: 2.5 ng/mL
  concentration at 24 h: 1 ng/mL
[7]
  concentration at 0 h: 0 ng/mL
  concentration at 0.25 h: 1 ng/mL
  concentration at 0.5 h: 1.3 ng/mL
  concentration at 0.75 h: 2.5 ng/mL
  concentration at 1 h: 7.8 ng/mL
  concentration at 1.5 h: 12.2 ng/mL
  concentration at 1.833 h: 13.8 ng/mL
  concentration at 2.167 h: 11.4 ng/mL
  concentration at 2.5 h: 8.4 ng/mL
  concentration at 4 h: 2.9 ng/mL
  concentration at 5 h: 3.2 ng/mL
  concentration at 6 h: 1.6 ng/mL
  concentration at 8 h: 1.4 ng/mL
  concentration at 12 h: 1.3 ng/mL
  concentration at 24 h: 1 ng/mL
[8]
  concentration at 0.25 h: 4.2 ng/mL
  concentration at 0.5 h: 21.2 ng/mL
  concentration at 0.75 h: 28.7 ng/mL
  concentration at 1 h: 36.6 ng/mL
  concentration at 1.5 h: 40.8 ng/mL
  concentration at 1.833 h: 32 ng/mL
  concentration at 2.167 h: 28.9 ng/mL
  concentration at 2.5 h: 24.3 ng/mL
  concentration at 4 h: 9.5 ng/mL
  concentration at 5 h: 12.4 ng/mL
  concentration at 6 h: 5.8 ng/mL
  concentration at 8 h: 3.9 ng/mL
  concentration at 12 h: 2.7 ng/mL
  concentration at 24 h: 1.3 ng/mL
4 tablets, after administering 4 tablets, 1.17 h p.a. (1.167 in Table 3), read-out: Petasin serum concentration Max.
  concentration at 1.17 h: 100 ng/mL
4 tablets, after administering 4 tablets, 1.17 h p.a. (1.167 in Table 3), read-out: Petasin serum concentration Mean
  concentration at 1.17 h: 47.3 ng/mL
4 tablets, after administering 4 tablets, 1.17 h p.a. (1.167 in Table 3), read-out: Petasin serum concentration Median
  concentration at 1.17 h: 43.6 ng/mL
4 tablets, after administering 4 tablets, 1.17 h p.a. (1.167 in Table 3), read-out: Petasin serum concentration Min.
  concentration at 1.17 h: 7.5 ng/mL
4 tablets, after administering 4 tablets, 3 h p.a., read-out: Petasin serum concentration Max.
  concentration at 3 h: 49 ng/mL
4 tablets, after administering 4 tablets, 3 h p.a., read-out: Petasin serum concentration Mean
  concentration at 3 h: 17.9 ng/mL
4 tablets, after administering 4 tablets, 3 h p.a., read-out: Petasin serum concentration Median
  concentration at 3 h: 14.6 ng/mL
4 tablets, after administering 4 tablets, 3 h p.a., read-out: Petasin serum concentration Min.
  concentration at 3 h: 7.2 ng/mL
Single oral administration of 2 or 4 tablets
  Resorption: takes quickly place depending on the dose
